Measured values as given in ChEMBL document CHEMBL4396888, “Design and Synthesis of Potent, Selective Inhibitors of Protein Arginine Methyltransferase 4 against Acute Myeloid Leukemia” (J Med Chem, 2019).
Active and inactive are the calls of the source. The calls are words filed in the database; no cut-off is given here.

Legend:
MV4-11 = assay: Antiproliferative activity against human MV4-11 cells measured after 6 days by CCK8/SRB assay; format: functional, cell-based
[1] = target: Histone-lysine N-methyltransferase EZH2 (Homo sapiens) (UniProt Q15910); assay: Inhibition of EZH2 (unknown origin) up to 50 uM preincubated for 10 mins followed by peptide substrate addition and measured after 4 hrs in presence of SAM by HTRF assay
[2] = Clearance in ICR mouse at 3 mg/kg, iv by mass spectrometric analysis; format: ADME, organism-based; settings: in vivo
MOLT-4 = assay: Antiproliferative activity against human MOLT4 cells measured after 6 days by CCK8/SRB assay; format: functional, cell-based
[3] = Protein binding in mouse plasma at 2 uM; format: ADME, cell-free; settings: read-out: PPB (converted)
[4] = Cmax in ICR mouse at 10 mg/kg, po administered via gavage by mass spectrometric analysis; format: ADME, organism-based; design: dose 10 mg/kg, route oral; settings: in vivo
[5] = target: Histone-lysine N-methyltransferase 2A (Homo sapiens) (UniProt Q03164); assay: Inhibition of MLL1 (unknown origin) up to 50 uM preincubated for 10 mins followed by peptide substrate addition and measured after 4 hrs in presence of SAM by HTRF assay
[6] = target: Histone-lysine N-methyltransferase SMYD3 (Homo sapiens) (UniProt Q9H7B4); assay: Inhibition of SMYD3 (unknown origin) up to 50 uM preincubated for 15 mins followed by substrate addition and measured after 60 mins by AlphaLisa assay
Histone-lysine N-methyltransferase SMYD3 (Homo sapiens), sequence (Q9H7B4 whole entry): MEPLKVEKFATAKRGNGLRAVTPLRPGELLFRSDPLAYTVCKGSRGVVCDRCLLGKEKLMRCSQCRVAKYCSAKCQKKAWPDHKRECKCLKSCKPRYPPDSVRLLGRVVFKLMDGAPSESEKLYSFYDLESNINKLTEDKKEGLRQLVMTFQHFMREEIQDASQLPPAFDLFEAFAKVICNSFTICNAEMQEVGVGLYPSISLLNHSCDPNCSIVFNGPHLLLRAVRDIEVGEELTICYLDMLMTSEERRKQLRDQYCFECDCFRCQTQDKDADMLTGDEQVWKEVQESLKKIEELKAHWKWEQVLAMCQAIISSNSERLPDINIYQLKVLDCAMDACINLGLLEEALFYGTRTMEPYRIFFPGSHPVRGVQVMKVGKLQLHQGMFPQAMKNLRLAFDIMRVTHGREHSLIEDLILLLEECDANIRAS

[7] = Oral bioavailability in ICR mouse at 10 mg/kg administered via gavage by mass spectrometric analysis; format: ADME, organism-based; settings: in vivo
MOLM-13 [8] = assay: Induction of apoptosis in human MOLM13 cells measured after 96 hrs by Annexin V-FITC/propidium iodide staining-based flow cytometry; format: functional, cell-based
Mus musculus [9] = assay: In vivo inhibition of PRMT4 in nude BALB/c mouse xenografted with human MOLM13 cells assessed as reduction in asymmetric dimethyl arginine level at 100 mg/kg, po administered daily for 18 days measured 6 hrs post-last dose by Western blot analysis; format: functional, organism-based
[10] = Volume of distribution at steady state in ICR mouse at 3 mg/kg, iv by mass spectrometric analysis; format: ADME, organism-based; settings: in vivo, read-out: Vdss
[11] = Tmax in ICR mouse at 10 mg/kg, po administered via gavage by mass spectrometric analysis; format: ADME, organism-based; settings: in vivo
THP-1 = assay: Antiproliferative activity against human THP1 cells measured after 6 days by CCK8/SRB assay; format: functional, cell-based
K562 = assay: Antiproliferative activity against human K562 cells measured after 6 days by CCK8/SRB assay; format: functional, cell-based
[12] = target: Protein arginine N-methyltransferase 5 (Homo sapiens, UniProt O14744); assay: Inhibition of PRMT5 (unknown origin) preincubated for 15 mins followed by substrate addition and measured after 60 mins by AlphaLisa assay
[13] = target: T1, Histone-arginine methyltransferase CARM1 (Homo sapiens, UniProt Q86X55); assay: Inhibition of PRMT4 (unknown origin) using histone H3 (21 to 44 residues) as substrate measured after 60 mins in presence of SAM by AlphaLisa assay
T1 sequence (Q86X55 whole entry): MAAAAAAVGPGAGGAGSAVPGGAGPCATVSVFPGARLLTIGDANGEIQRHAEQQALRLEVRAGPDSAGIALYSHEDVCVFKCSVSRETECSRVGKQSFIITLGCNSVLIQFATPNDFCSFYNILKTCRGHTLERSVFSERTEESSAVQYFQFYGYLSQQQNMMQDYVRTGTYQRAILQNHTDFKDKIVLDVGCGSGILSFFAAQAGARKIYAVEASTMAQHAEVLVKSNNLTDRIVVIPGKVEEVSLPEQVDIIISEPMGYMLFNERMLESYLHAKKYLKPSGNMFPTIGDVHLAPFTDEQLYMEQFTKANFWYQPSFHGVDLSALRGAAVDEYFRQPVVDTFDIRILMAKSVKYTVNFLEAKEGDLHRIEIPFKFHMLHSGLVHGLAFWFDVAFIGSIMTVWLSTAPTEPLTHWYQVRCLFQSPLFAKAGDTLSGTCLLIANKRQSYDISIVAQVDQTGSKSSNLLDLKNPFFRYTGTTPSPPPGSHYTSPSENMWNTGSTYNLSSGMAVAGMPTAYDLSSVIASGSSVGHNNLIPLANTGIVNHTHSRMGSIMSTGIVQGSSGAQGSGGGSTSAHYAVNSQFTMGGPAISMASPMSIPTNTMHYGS

[14] = AUC (0 to infinity) in ICR mouse at 3 mg/kg, iv by mass spectrometric analysis; format: ADME, organism-based; design: dose 3 mg/kg, route intravenous, time infinity; settings: in vivo
[15] = target: Protein arginine N-methyltransferase 8 (Homo sapiens, UniProt Q9NR22); assay: Inhibition of PRMT8 (unknown origin) preincubated for 15 mins followed by substrate addition and measured after 60 mins by AlphaLisa assay
Protein arginine N-methyltransferase 8, sequence (Q9NR22 whole entry): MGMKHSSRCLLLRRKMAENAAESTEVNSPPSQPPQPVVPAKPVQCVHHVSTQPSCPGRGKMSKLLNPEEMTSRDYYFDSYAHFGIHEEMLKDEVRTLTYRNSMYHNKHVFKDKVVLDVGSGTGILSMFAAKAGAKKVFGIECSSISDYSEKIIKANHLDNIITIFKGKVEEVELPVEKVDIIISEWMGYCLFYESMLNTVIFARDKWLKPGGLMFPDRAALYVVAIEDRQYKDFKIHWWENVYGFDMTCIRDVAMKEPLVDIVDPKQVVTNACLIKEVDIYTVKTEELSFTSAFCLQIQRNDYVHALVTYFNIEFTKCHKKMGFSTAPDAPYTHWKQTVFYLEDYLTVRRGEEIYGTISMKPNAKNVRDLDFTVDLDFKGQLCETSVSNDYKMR

[16] = Selectivity ratio of IC50 for antiproliferative activity against human MOLM13 cells to IC50 for inhibition of PRMT4 in human MOLM13 cells assessed as reduction in PABP1 dimethylation
MOLM-13 [17] = assay: Induction of apoptosis in human MOLM13 cells assessed as total apoptotic cells at 12 uM measured after 96 hrs by Annexin V-FITC/propidium iodide staining-based flow cytometry relative to control; format: functional
Mus musculus [18] = assay: In vivo inhibition of PRMT4 in nude BALB/c mouse xenografted with human MOLM13 cells assessed as reduction in PABP1 dimethylation at 100 mg/kg, po administered daily for 18 days measured 6 hrs post-last dose by Western blot analysis; format: functional, organism-based
[19] = target: Protein arginine N-methyltransferase 1 (Homo sapiens, UniProt Q99873); assay: Inhibition of PRMT1 (unknown origin) preincubated for 15 mins followed by substrate addition and measured after 60 mins by AlphaLisa assay
Protein arginine N-methyltransferase 1, sequence (Q99873 whole entry): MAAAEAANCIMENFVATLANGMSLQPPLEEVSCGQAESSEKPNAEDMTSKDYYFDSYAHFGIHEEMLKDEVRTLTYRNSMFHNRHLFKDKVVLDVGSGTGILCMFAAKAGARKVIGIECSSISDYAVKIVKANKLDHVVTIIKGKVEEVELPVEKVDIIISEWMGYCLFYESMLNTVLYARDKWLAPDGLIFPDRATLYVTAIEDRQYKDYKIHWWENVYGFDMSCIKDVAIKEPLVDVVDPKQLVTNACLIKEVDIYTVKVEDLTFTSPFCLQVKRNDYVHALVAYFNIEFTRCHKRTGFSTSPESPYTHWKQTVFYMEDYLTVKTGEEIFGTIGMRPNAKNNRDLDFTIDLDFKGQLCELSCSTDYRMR

[20] = AUC (0 to infinity) in ICR mouse at 10 mg/kg, po administered via gavage by mass spectrometric analysis; format: ADME, organism-based; design: dose 10 mg/kg, time infinity, route oral; settings: in vivo
[21] = Toxicity in nude BALB/c mouse xenografted with human MOLM13 cells assessed as visible changes at 100 mg/kg, po administered daily for 18 days; format: organism-based; settings: in vivo, 432 h
[22] = target: Protein arginine N-methyltransferase 3 (Homo sapiens, UniProt O60678); assay: Inhibition of PRMT3 (unknown origin) preincubated for 15 mins followed by substrate addition and measured after 60 mins by AlphaLisa assay
Protein arginine N-methyltransferase 3, sequence (O60678 whole entry): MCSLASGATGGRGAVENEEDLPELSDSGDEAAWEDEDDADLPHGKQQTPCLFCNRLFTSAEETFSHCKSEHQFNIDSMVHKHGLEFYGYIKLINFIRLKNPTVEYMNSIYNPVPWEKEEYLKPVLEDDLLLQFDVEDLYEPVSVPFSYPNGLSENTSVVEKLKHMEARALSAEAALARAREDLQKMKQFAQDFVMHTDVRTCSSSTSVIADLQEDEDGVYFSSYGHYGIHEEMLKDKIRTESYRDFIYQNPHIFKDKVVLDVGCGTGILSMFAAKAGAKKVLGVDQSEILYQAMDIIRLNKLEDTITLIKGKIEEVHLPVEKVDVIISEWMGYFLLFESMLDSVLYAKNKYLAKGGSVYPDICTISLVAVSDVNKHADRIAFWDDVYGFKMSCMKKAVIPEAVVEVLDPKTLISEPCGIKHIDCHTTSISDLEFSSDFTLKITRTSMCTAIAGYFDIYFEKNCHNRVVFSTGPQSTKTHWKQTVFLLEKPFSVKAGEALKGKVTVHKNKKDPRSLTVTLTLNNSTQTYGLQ

[23] = target: Protein arginine N-methyltransferase 7 (Homo sapiens, UniProt Q9NVM4); assay: Inhibition of recombinant full-length human PRMT7 expressed in Sf9 insect cells using Ac-KKDGKKRKRSRKESYK-biotin as substrate measured after 30 mins in presence of SAM by topcount scintillation counting method
Protein arginine N-methyltransferase 7, sequence (Q9NVM4 whole entry): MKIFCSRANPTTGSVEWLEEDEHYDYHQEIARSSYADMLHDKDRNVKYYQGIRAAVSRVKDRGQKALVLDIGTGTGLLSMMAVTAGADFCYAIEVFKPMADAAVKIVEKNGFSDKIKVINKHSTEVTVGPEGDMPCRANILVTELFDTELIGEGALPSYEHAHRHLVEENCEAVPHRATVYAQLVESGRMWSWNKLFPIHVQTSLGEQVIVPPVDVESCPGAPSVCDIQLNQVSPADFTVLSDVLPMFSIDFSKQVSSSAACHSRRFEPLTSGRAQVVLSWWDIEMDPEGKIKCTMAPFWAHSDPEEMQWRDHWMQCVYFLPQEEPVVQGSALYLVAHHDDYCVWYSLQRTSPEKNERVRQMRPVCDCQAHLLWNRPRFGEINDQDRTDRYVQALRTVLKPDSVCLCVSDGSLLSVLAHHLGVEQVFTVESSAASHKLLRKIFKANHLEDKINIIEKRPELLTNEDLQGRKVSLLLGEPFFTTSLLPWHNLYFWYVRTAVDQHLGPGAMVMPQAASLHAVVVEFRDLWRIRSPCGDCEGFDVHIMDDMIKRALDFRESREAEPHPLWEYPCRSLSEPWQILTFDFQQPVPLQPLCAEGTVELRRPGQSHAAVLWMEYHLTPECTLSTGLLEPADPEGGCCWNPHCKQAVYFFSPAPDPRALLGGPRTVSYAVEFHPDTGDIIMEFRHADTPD

[24] = target: T1, Histone-arginine methyltransferase CARM1; assay: Inhibition of PRMT4 in human MOLM13 cells assessed as reduction in BAF155 dimethylation measured after 96 hrs by Western blotting analysis; format: cell-based
RS4-11 = assay: Antiproliferative activity against human RS4:11 cells measured after 6 days by CCK8/SRB assay; format: functional, cell-based
Mus musculus [25] = assay: In vivo inhibition of PRMT4 in nude BALB/c mouse xenografted with human MOLM13 cells assessed as reduction in BAF155 dimethylation at 100 mg/kg, po administered daily for 18 days measured 6 hrs post-last dose by Western blot analysis; format: functional, organism-based
[26] = target: Histone-lysine N-methyltransferase SETD2 (Homo sapiens) (UniProt Q9BYW2); assay: Inhibition of SETD2 (unknown origin) up to 50 uM
Histone-lysine N-methyltransferase SETD2 (Homo sapiens), sequence (Q9BYW2 whole entry): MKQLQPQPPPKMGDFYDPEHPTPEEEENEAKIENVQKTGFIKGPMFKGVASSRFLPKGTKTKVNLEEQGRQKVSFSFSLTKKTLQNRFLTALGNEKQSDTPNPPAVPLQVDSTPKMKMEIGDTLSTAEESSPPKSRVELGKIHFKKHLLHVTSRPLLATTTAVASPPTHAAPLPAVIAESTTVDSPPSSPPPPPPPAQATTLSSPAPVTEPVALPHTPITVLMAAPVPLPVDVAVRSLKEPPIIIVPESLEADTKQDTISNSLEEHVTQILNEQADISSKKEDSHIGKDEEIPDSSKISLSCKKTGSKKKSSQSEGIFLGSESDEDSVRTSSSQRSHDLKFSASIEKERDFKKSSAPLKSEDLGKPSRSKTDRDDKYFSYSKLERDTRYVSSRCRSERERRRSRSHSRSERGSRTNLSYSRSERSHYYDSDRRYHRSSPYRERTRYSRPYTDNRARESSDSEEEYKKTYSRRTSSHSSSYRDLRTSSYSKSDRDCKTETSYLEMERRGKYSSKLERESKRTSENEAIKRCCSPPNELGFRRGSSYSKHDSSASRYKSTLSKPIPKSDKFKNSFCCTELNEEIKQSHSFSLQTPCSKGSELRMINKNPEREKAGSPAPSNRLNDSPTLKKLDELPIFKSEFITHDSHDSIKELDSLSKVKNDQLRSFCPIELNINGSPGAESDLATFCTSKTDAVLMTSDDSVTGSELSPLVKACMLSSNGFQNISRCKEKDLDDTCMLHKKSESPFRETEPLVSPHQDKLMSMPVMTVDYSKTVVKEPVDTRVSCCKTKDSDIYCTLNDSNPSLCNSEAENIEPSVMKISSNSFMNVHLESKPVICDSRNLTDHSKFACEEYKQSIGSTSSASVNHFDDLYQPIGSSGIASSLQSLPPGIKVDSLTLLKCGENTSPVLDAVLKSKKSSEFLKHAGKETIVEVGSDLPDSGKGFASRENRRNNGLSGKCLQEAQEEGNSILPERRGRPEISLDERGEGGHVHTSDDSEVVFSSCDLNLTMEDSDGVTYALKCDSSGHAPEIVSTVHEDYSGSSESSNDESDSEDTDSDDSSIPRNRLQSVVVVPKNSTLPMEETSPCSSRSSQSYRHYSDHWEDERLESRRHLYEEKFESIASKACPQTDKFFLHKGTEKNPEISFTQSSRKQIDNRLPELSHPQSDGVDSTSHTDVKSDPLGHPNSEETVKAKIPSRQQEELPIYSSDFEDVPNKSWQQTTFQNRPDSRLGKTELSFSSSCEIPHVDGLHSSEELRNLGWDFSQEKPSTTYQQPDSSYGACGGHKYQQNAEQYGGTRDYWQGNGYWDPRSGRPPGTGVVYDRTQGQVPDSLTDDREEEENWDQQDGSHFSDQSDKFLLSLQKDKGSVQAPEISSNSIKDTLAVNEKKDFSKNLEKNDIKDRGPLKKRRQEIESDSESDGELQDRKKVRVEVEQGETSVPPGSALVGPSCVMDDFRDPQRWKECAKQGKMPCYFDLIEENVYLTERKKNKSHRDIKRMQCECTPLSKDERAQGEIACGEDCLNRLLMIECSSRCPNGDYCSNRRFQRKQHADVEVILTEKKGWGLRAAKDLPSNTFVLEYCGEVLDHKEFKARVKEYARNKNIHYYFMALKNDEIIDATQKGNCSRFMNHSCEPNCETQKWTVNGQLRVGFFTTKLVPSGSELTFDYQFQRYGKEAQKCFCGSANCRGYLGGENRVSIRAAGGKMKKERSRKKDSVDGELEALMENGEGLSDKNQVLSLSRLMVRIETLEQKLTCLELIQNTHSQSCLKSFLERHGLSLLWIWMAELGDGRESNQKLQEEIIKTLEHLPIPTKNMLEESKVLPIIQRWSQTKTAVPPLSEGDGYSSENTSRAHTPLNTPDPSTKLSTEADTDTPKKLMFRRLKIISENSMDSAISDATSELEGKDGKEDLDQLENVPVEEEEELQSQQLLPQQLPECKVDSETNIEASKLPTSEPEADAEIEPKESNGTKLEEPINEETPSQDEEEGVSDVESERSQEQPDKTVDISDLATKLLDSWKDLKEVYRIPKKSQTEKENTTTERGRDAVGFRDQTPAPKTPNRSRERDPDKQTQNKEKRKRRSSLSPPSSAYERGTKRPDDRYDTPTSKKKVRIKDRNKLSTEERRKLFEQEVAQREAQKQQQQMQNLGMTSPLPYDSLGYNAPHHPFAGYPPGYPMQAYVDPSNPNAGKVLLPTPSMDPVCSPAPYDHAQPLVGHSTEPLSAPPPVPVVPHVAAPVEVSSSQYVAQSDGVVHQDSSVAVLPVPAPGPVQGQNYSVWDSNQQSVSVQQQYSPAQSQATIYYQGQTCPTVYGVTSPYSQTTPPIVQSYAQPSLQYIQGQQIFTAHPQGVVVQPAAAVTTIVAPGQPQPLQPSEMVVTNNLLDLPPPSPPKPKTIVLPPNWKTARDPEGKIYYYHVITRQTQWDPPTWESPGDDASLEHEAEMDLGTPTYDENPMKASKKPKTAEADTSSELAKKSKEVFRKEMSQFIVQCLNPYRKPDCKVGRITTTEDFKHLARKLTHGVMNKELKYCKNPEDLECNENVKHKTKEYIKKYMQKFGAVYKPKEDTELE

CNC[C@@H](O)CN1CCc2c(cccc2OCc2ccc(-c3nccs3)cc2)C1
Activity (MV4-11): Dose-dependent effect
inhibition [1]: inactive
clearance [2]: 44.9 mL/min/kg
Activity (MOLT-4): Dose-dependent effect
fraction unbound at 2 µM [3]: 0.02
Cmax [4]: 75.4 ng/mL
inhibition [5]: inactive
inhibition [6]: inactive
bioavailability [7]: 48.8%
Activity (MOLM-13 [8]): Dose-dependent effect
inhibition (Mus musculus [9]): Active
Vd [10]: 42.6 L/kg
Tmax [11]: 8 h
Activity (THP-1): Dose-dependent effect
Activity (K562): Dose-dependent effect
IC50 [12]: > 30 µM
IC50 [13]: 0.021 µM
AUC(0-inf) [14]: 1160 ng·h/mL
IC50 [15]: 3.7 µM
Ratio IC50 [16]: 10
Activity (MOLM-13 [17]): 96.4%
inhibition (Mus musculus [18]): Active
IC50 [19]: 8.6 µM
AUC(0-inf) [20]: 3030 ng·h/mL
Activity [21]: Non-Toxic
IC50 [22]: > 10 µM
IC50 [23]: > 30 µM
IC50 [24]: 0.369 µM
Activity (RS4-11): Dose-dependent effect
inhibition (Mus musculus [25]): Active
inhibition [26]: inactive
